In test [1] the test system is DBA/1 mice. As to the kind of experiment: Therapeutic effect on rheumatoid arthritis, CIA mouse model. The format is in vivo. As to the method: The CIA mouse model is a model in which arthritis is induced by collagen in DBA/1 mice. Thus, a 1:1 mixture of collagen type 2 and CFA was intradermally (ID) injected into the base of the tail of 8-week old DBA/1 mice. Two weeks after the primary immunization, a 1:1 mixture of collagen type 2 and IFA was intradermally (ID) injected into the base of the tail. After the second immunization, the pathology was measured twice a week, and the groups were divided equally so that the mean of the pathology of each group was 4 points. From Day 35 after the primary immunization, etanercept (4.5 mpk), adalimumab (1.2 mpk), the compound of Example 61 (25 mpk, 50 mpk, or 100 mpk) were orally administered three times a week, and the pathology was measured and recorded. The pathology score was measured as 1=inflammation and swelling of one toe, 2=inflammation of one or more toes or weak swelling of the whole sole of the foot, 3=severe swelling of the whole sole of the foot and swelling of ankle, 4=very severe inflammation and swelling of the whole foot or the bending and stiffness of foot (N=7 to 9/group, *P<0.01, **P<0.005, ***P<0.001).

For test [2], the target named is TNF-etanercept binding (Homo sapiens, UniProt P01375). As to the kind of experiment: SPR competition: inhibition of TNF-etanercept binding. The note with it: etanercept alone vs with compound, FIG. 2e. As to the method: The competition of binding of TNF-inhibiting biopharmaceutical etanercept and the derivative compounds to TNF was measured by SPR assay. Based on the results of pH scouting (10 mM acetate buffer, pH 4.0, 4.5, 5.0, and 5.5), the appropriate buffer pH was determined, and then the recombinant TNF was immobilized on the CM5 chip (4000-5000 RU). In order to correct an effect of DMSO, a solvent correction standard was then prepared, and DMSO was added to the PBST buffer (1×PBS, pH 7.4, 0.05% Tween 20, 0.01% Triton X-100, 5% DMSO) in an amount of 5%. Then, Etanercept alone or in combination with the compounds was flowed into the chip (20 μl/min, 300 s) and dissolved (700 s), and the results of sensorgram were analyzed by a dedicated program. […] At this time, the running buffer was PBST buffer, the regeneration buffer was 10 mM glycine (pH 2.5), and the instrument was Biacore T200 (GE).

Test [3] relates to BALB/c mice. As to the kind of experiment: In vivo TNF neutralization assay (TNF/D-galactosamine-induced lethality). The arrangement: species or system mouse. The note with it: 3.3, 16.5 mpk PO 30 minutes before challenge; 24 hours; concentration-dependent. As to the method:
Treatment with TNF and a sensitizer D-galactosamine in an in vivo mouse model leads to death from acute liver failure. Thus, the compound of Example 61 (3.3 mpk or 16.5 mpk) was orally administered to BALB/c mice, and after 30 minutes, the mice were IP treated with the mixture of D-galactosamine (21 mg/mouse) and TNF (0.3 μg/mouse). Survival rates were observed and recorded every 3 hours up to 24 hours, and statistically analyzed by log-rank (Mantel-Cox) test using Prism 6 (GraphPad) (N=13/group, **P<0.005, ***P<0.001). mpk, mg/kg). This confirmed that the in vivo neutralization activity of the compounds binding to TNF in a TNF-induced lethality model.

Test [4] has as its target T1, biotinylated TNF (Homo sapiens, UniProt P01375).
T1 construct: purchased R&D Systems NFTAO
In words: Flow cytometry: binding of biotinylated TNF to Raw 264.7 cells. It is filed as cell-based, mouse. The note with it: compound 800, 200, 5 μM, FACS, FIG. 3a. The procedure: First, macrophage Raw 264.7 cells were prepared (4×10^6 cells/ml), and the biotinylated TNF alone or in combination with the 4-benzopyranone derivative compound (800, 200, 5 μM) was added to the cells and reacted (30 min, 4° C.). 10 μl of avidin-FITC reagent was then added and reacted in the dark (30 min, 4° C.). After washing with RDF1 buffer, FACS analysis was carried out (BD Canto). Human TNF-alpha Biotinylated Fluorokine Flow Cytometry Kit (Cat #: NFTAO) of R&D Systems was used in the experiment.

From patent publication US11504349B2, “Composition for preventing or treating TNF-related diseases, containing novel derivative as active ingredient, and method for inhibiting TNF activity by using same” (ILAB, priority 2017, dated 2022) come the findings set out here.

SMILES strings stand for the structures.

Sequence of TNF-etanercept binding (P01375 77-233 limits assumed): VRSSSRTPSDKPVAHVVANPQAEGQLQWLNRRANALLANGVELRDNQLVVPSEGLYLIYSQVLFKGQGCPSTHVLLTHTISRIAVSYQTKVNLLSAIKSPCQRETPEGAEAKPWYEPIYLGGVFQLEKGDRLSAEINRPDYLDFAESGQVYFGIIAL
T1 sequence (P01375 77-233 limits assumed): as above

In the case of `O=C(O)c1c(-c2cc(F)ccc2F)oc2cc(Cl)ccc2c1=O` [Example 61, 2-(2,5-difluorophenyl)-3-carboxy-7-chloro-(4H)-4-benzopyranone], the “therapeutic effect on rheumatoid arthritis (pathology score)” value in test [1] (25, 50 and 100 mpk PO three times a week, vs negative control) is on record as “remarkable therapeutic effect”. Also, in test [1] (25 mpk), the “effect in comparison with etanercept” value is reported as “non-inferior effect” and the “efficacy in comparison with tofacitinib (25 mpk)” value is “considerably similar efficacy”. Further, the “inhibition of TNF-etanercept binding” value in test [2] is on record as “significantly inhibited the TNF-etanercept binding”. The “death of mice due to acute hepatotoxicity induced by D-galactosamine and TNF” value in test [3] was “inhibited”. Moreover, the “inhibitory activity against TNF-cell binding” value in test [4] was “decreased the target cell binding of TNF to the basal level in a concentration-dependent manner”.
